# Laboratory results published in patent US4912227A, “1,2,8,8A-tetrahydrocyclopropa(c)pyrrolo(3,2-e)-indol-4-(5H)-ones and related compounds” (The Upjohn Company, priority 1985, dated 1990).
# How the values were obtained:
# [1] = system: murine L1210 tumor cells; assay: cytotoxic activity against murine L1210 tumor cells in suspension (3-day cell growth); type: cell-based; conditions: for IC50 / IC90: Mus musculus, 72 h; for IC50: read-out: L-1210 (3-Day Cell Growth) ID50; for IC90: read-out: L-1210 (3-Day Cell Growth) ID90
# Protocol: Many of the compounds of the subject invention have useful cytotoxic activity against murine L1210 tumor cells in suspension, which is a standard model for such tests before the compounds are tested in humans. […] Following is a table showing the results of testing various compounds against L1210 in suspension using standard, well-known procedures. The compounds are identified by an internal designation called "U-" number. The structural identify of the "U-" numbered compounds is shown in Chart I.
# [2] = system: Bacillus subtilis; assay: antimicrobial activity
# [3] = system: Klebsiella pneumonia; assay: antimicrobial activity
# [4] = system: Sarcina lutea; assay: antimicrobial activity
# [5] = system: Escherichia coli; assay: antimicrobial activity
# [6] = system: Proteus vulgaris; assay: antimicrobial activity
# [7] = system: Staphylococcus aureus; assay: antimicrobial activity
# [8] = system: Salmonella schottmeulerri; assay: antimicrobial activity
# [9] = system: Mycobacterium avium; assay: antimicrobial activity
# [10] = system: Saccharomyces pastorianus; assay: antimicrobial activity
# [11] = system: Penicillium oxalicum; assay: antimicrobial activity
# [12] = system: B16 melanoma; assay: B16 melanoma implanted subcutaneously in mice, single intravenous dose; type: in vivo
# Text: (§1) These characteristics are advantageous for antitumor agents.
# [13] = system: M5076 ovarian sarcoma; assay: lifespan of mice implanted with M5076 ovarian sarcoma; type: in vivo
# Text: as §1
# [14] = system: Lewis carcinoma; assay: lifespan of mice implanted with Lewis carcinoma; type: in vivo
# Text: as §1
# [15] = system: human lung tumor (Lx-1 carcinoma); assay: human lung tumor (Lx-1 carcinoma) xenograft in nude mice; type: in vivo
# Text: as §1
# [16] = system: solid tumors; assay: activity against solid tumors; design: species or system mice; conditions: mouse, in vivo
# Text: as §1
# [17] = solubility in aqueous solution; type: physicochemical
# [18] = stability in aqueous solution; type: physicochemical
# [19] = system: P388 leukemia; assay: antitumor activity in P388 leukemic mice, intraperitoneal; type: in vivo; conditions: for ILS at 0.1 mg/kg: at 0.10 mg./kg.
# Text: These murine test systems are predictive for clinically useful human antitumor agents (see, for example, A. Geldin, J. M. Vendetti, J. S. MacDonald, F. M. Muggia, J. E. Henney and V. T. DeVita, European J. Cancer, Vol. 17, pp. 129-142, 1981; J. M. Vendetti, Cancer Treatment Reports, Vol. 67, pp. 767-772, 1983; and J. M. Vendetti, R. A. Wesley, and J. Plowman, Advances in Pharmacology and Chemotherapy, Vol. 20, pp. 1-20, 1984), and it is therefore presumed that the compounds of the subject invention will be useful in the control and treatment of cancer in humans when given, for example, intravenously in doses of 0.001 to about 10 mg. per kg. of body weight per day, the exact dose depending on the age, weight and condition of the patient, and on the frequency of administration. Following is a table showing the results of testing various compounds intraperitoneally against P388 leukemic mice using standard well-known procedures (In Vivo cancer, Models, NIH Publication No. 84-2635, 1984). The structural identify of the "U-" numbered compounds is shown in Chart I. In the table %ILS refers to percent increase in life span of treated animals over controls.
# [20] = Mus musculus, P388, ip, read-out: P388 % ILS (percent increase in life span over controls)
structure (smiles),measurement,setting,value
"Cc1c[nH]c2c1C13CC1CN(C(=O)c1ccc4ccccc4n1)C3=CC2=O (stereo not drawn) [U-68,749, 1,2,8,8a-tetrahydro-7-methyl-2-(quinolinylcarbonyl)cyclopropa[c]pyrrolo[3,2-e]indol-4(5H)-one]",IC50,[1],3.4 ng/mL
same,IC90,[1],8.4 ng/mL
"CC(=O)N1CC(COS(C)(=O)=O)c2c1cc(O)c1[nH]cc(C)c21 (stereo not drawn) [U-66,665]",IC50,[1],9 ng/mL
same,IC90,[1],32 ng/mL
same,activity against Bacillus subtilis,[2],have activity against
same,activity against Klebsiella pneumonia,[3],have activity against
same,activity against Sarcina lutea,[4],have activity against
same,activity against Escherichia coli,[5],have activity against
same,activity against Proteus vulgaris,[6],have activity against
same,activity against Staphylococcus aureus,[7],have activity against
same,activity against Salmonella schottmeulerri,[8],have activity against
same,activity against Mycobacterium avium,[9],have activity against
same,activity against Saccharomyces pastorianus,[10],have activity against
same,activity against Penicillium oxalicum,[11],have activity against
"Cc1c[nH]c2c1[C@@]13C[C@@H]1CN(C(=O)c1cc4cc(NC(=O)c5cc6ccccc6o5)ccc4[nH]1)C3=CC2=O [U-73,975]",increase in life span over control (non-drug treated) animals,[12],61%
same,lifespan of mice implanted with M5076 ovarian sarcoma,[13],significantly increased the lifespan
same,lifespan of mice implanted with Lewis carcinoma,[14],significantly increased the lifespan
same,growth inhibition of human lung tumor (Lx-1 carcinoma) xenograft,[15],significantly inhibited the growth
same,activity against solid tumors,[16],particularly good activity against solid tumors
same,solubility in aqueous solution,[17],good solubility
same,stability in aqueous solution,[18],good solubility and stability characteristics in aqueous solution
same,activity against Klebsiella pneumonia,[3],has activity against
same,activity against Escherichia coli,[5],has activity against
same,activity against Staphylococcus aureus,[7],has activity against
"Cc1c[nH]c2c1C13CC1CN(C(=O)c1ccccc1)C3=CC2=O (stereo not drawn) [U-66,866, 1,2,8,8a-tetrahydro-7-methyl-2-benzoylcyclopropa[c]pyrrolo[3,2-e]indol-4(5H)-one]",IC50,[1],1.5 ng/mL
same,IC90,[1],4.5 ng/mL
same,ILS at 12 mg/kg,"[19]; Mus musculus, P388, ip, at 12 mg./kg., read-out: P388 % ILS (percent increase in life span over controls)",71%
"Cc1c[nH]c2c1C13CC1CN(C(=O)c1cc4ccccc4[nH]1)C3=CC2=O (stereo not drawn) [U-66,694, 1,2,8,8a-tetrahydro-7-methyl-2-(1H-indol-2-ylcarbonyl)cyclopropa[c]pyrrolo(3,2-c]indol-4(5H)-one]",IC50,[1],0.15 ng/mL
same,IC90,[1],0.34 ng/mL
same,ILS at 0.63 mg/kg,"[19]; Mus musculus, P388, ip, at 0.63 mg./kg., read-out: P388 % ILS (percent increase in life span over controls)",164%
same,activity against Bacillus subtilis,[2],have activity against
same,activity against Klebsiella pneumonia,[3],have activity against
same,activity against Sarcina lutea,[4],have activity against
same,activity against Escherichia coli,[5],have activity against
same,activity against Proteus vulgaris,[6],have activity against
same,activity against Staphylococcus aureus,[7],have activity against
same,activity against Salmonella schottmeulerri,[8],have activity against
same,activity against Mycobacterium avium,[9],have activity against
same,activity against Saccharomyces pastorianus,[10],have activity against
same,activity against Penicillium oxalicum,[11],have activity against
"Cc1c[nH]c2c1C13CC1CN(C(=O)c1cc4cc(NC#N)ccc4[nH]1)C3=CC2=O (stereo not drawn) [U-69,058, (1,2,8,8a)-tetrahydro-7-methyl-2-2[[5-cyanoamino-1H-indol-2-yl]carbonyl]cyclopropa[c]pyrrolo[3,2-e]indol-4(5H)-one]",ILS at 0.5 mg/kg,"[19]; Mus musculus, P388, ip, at 0.50 mg./kg., read-out: P388 % ILS (percent increase in life span over controls)",96%
"Cc1c[nH]c2c1C13CC1CNC3=CC2=O (stereo not drawn) [U-66,777]",IC50,[1],180 ng/mL
same,IC90,[1],920 ng/mL
"COc1ccc2[nH]c(C(=O)N3CC4CC45C3=CC(=O)c3[nH]cc(C)c35)cc2c1 (stereo not drawn) [U-67,786]",IC50,[1],0.046 ng/mL
same,IC90,[1],0.1 ng/mL
"CC(=O)N1CC2CC23C1=CC(=O)c1[nH]cc(C)c13 (stereo not drawn) [U-66,664]",IC50,[1],4.8 ng/mL
same,IC90,[1],18 ng/mL
"Cc1c[nH]c2c1C13CC1CN(C(=O)c1ccc[nH]1)C3=CC2=O (stereo not drawn) [U-68,819, 1,2,8,8a-tetrahydro-7-methyl-2-(2-pyrrolylcarbonyl)cyclopropa[c]pyrrolo[3,2-e]indol-4(5H)-one]",IC50,[1],0.48 ng/mL
same,IC90,[1],1.5 ng/mL
same,ILS at 1 mg/kg,"[19]; Mus musculus, P388, ip, at 1 mg./kg., read-out: P388 % ILS (percent increase in life span over controls)",71%
"Cc1c[nH]c2c1C13CC1CN(C(=O)c1cc4cc(NC(=O)c5cc6ccccc6[nH]5)ccc4[nH]1)C3=CC2=O (stereo not drawn) [U-68,415]",IC50,[1],0.018 ng/mL
same,IC90,[1],0.044 ng/mL
same,P388 cures,[19]; at 0.05 mg./kg.,4/6
"Cc1c[nH]c2c1C13CC1CN(C(=O)c1cc4cc(NC(N)=O)ccc4[nH]1)C3=CC2=O (stereo not drawn) [U-69,059, 1,2,8,8a-tetrahydro-7-methyl-2-[[5-ureido-1H-indol-2-yl]carbonyl]cyclopropa[c]pyrrolo[3,2-e]indol-4(5H)-one]",P388 cures,[19]; at 0.5 mg./kg.,4/6
"Cc1c[nH]c2c1C13CC1CN(C(=O)c1cc4cc(NC(=O)c5ccccc5)ccc4[nH]1)C3=CC2=O (stereo not drawn) [U-68,846, 1,2,8,8a-tetrahydro-7-methyl-2-[[5-benzoylamino-1H-indol-2-yl]carbonyl]cyclopropa[c]pyrrolo[3,2-e]indol-4(5H)-one]",IC50,[1],0.034 ng/mL
same,IC90,[1],0.096 ng/mL
same,ILS at 0.05 mg/kg,"[19]; Mus musculus, P388, ip, at 0.05 mg./kg., read-out: P388 % ILS (percent increase in life span over controls)",82%
"Cc1c[nH]c2c1C13CC1CN(S(C)(=O)=O)C3=CC2=O (stereo not drawn) [U-62,736]",L-1210 (3-Day Cell Growth) ID50,[1],39 ng/mL
same,L-1210 (3-Day Cell Growth) ID90,[1],180 ng/mL
"Cc1c[nH]c2c1C13CC1CN(C(=O)c1cc4cc(NC(=O)c5cc6cc(NC(N)=O)ccc6[nH]5)ccc4[nH]1)C3=CC2=O (stereo not drawn) [U-69,060, 1,2,8,8a-tetrahydro-7-methyl-2-[[5-[[[5-ureido-1H-indol-2-yl]carbonyl]amino]-1H-indol-2-yl]carbonyl]cyclopropa[c]pyrrolo[3,2-a]indol-4(5H)-one]",ILS at 0.1 mg/kg,[19]; [20],138%
"COc1c(O)ccc2cc(C(=O)N3CC4CC45C3=CC(=O)c3[nH]cc(C)c35)[nH]c12 (stereo not drawn) [U-67,785, 1,2,8,8a-tetrahydro-7-methyl-2-[(6-hydroxy-7-methoxy-1H-indol-2-yl)carbonyl]cyclopropa[c]pyrrolo[3,2-e]indol-4(5H)-one]",IC50,[1],0.072 ng/mL
same,IC90,[1],0.19 ng/mL
same,ILS at 0.06 mg/kg,"[19]; Mus musculus, P388, ip, at 0.06 mg./kg., read-out: P388 % ILS (percent increase in life span over controls)",60%
"Cc1c[nH]c2c1C13CC1CN(C(=O)c1cc4cc(NC(=O)c5cc6cc(NC(=O)c7ccccc7)ccc6[nH]5)ccc4[nH]1)C3=CC2=O (stereo not drawn) [U-68,880]",IC50,[1],0.008 ng/mL
same,IC90,[1],0.019 ng/mL
same,ILS at 0.1 mg/kg,[19]; [20],71%
